This note sets out measurements from patent US20060019964A1, “Compounds” (priority 2002, published 2006).

The target of one data set is T1, histamine H3 receptor (Homo sapiens, UniProt Q9Y5N1).
T1 construct: expressed in transfected cells; host or cells: CHO K1 cells carrying pSwitch, transfected with pGeneH3, induced with mifepristone; clone 3H3; membrane preparation
The data set is described as follows: Histamine H3 functional antagonist assay ([35S]-GTPγS, CHO cell membranes). The format is biochemical. To be noted: functional antagonism vs histamine EC80, GTPγS; read-out: average pki (pKb) at H3 (converted). An excerpt:
2. H3 Receptor Cell Line Generation, Membrane Preparation and Functional GTPγS Assay Protocols
Generation of Histamine H3 Cell Line
The histamine H3 cDNA was isolated from its holding vector, pcDNA3.1 TOPO (InVitrogen), by restriction digestion of plasmid DNA with the enzymes BamH1 and Not-1 and ligated into the inducible expression vector pGene (InVitrogen) digested with the same enzymes. The GeneSwitch™ system (a system where in transgene expression is switched off in the absence of an inducer and switched on in the presence of an inducer) was performed as described in U.S. Pat. Nos. 5,364,791; 5,874,534; and 5,935,934. […]
10-14 days post selection 10 nM Mifepristone (InVitrogen), was added to the culture medium to induce the expression of the receptor. […] Receptor bound antibody was detected by incubation of the cells for 60 minutes on ice with a goat anti rabbit antibody, conjugated with Alexa 488 fluorescence marker (Molecular Probes). Following two further washes with Sorting Medium, cells were filtered through a 50 μm Filcon™ (BD Biosciences) and then analysed on a FACS Vantage SE Flow Cytometer fitted with an Automatic Cell Deposition Unit. […]

Another data set addresses T2, human H1 receptor (Homo sapiens, UniProt P35367).
T2 construct: expressed in transfected cells
The data set is described as follows: Histamine H1 functional antagonist assay (FLIPR). The settings on record: functional antagonism vs histamine EC80, FLIPR, CHO cells; read-out: average pki (pKb) at H1 (converted). The class given is cell-based. The procedure:
H1 Receptor Cell Line Generation and FLIPR Assay Protocol
1. Generation of Histamine H1 Cell Line
The human H1 receptor was cloned using known procedures described in the literature [Biochem. Biophys. Res. Commun. 1994, 201(2), 894]. Chinese hamster ovary cells stably expressing the human H1 receptor were generated according to known procedures described in the literature [Br. J. Pharmacol. 1996, 117(6), 1071].
Histamine H1 Functional Antagonist Assay […]
10 μl of test compound, diluted to the required concentration in Tyrodes buffer+probenecid (or 10 μl Tyrodes buffer+probenecid as a control) was added to each well and the plate incubated for 30 min at 37° C., 5% CO2. The plates were then placed into a FLIPR™ (Molecular Devioes, UK) to monitor cell fluorescence (λex=488 nm, λEM=540 nm) in the manner described in Sullivan et al. (In: Lambert DG (ed.), Calcium Signaling Protocols, New Jersey: Humana Press, 1999, 125-136) before and after the addition of 10 μl histamine at a concentration that results in the final assay concentration of histamine being EC80.
Functional antagonism is indicated by a suppression of histamine induced increase in fluorescence, as measured by the FLIPR™ system (Molecular Devices). By means of concentration effect curves, functional affinities are determined using standard pharmacological mathematical analysis.

A short description of the next data set: CNS penetration. The format is in vivo, male CD Sprague Dawley rats. To be noted: male, CD Sprague Dawley, brain; rat, 1 mg/kg intravenous, 5 minutes post-dose; described as low CNS penetration; read-out: CNS penetration (compound in brain tissue). The procedure: Compounds were dosed intravenously at a nominal dose level of 1 mg/kg to male CD Sprague Dawley rats. Compounds were formulated in 5% DMSO/45% PEG200/50% water. Blood samples were taken under terminal anaesthesia with isoflurane at 5 minutes post-dose and the brains were also removed for assessment of brain penetration. Blood samples were taken directly into heparinised tubes. Blood samples were prepared for analysis using protein precipitation and brain samples were prepared using extraction of drug from brain by homogenisation and subsequent protein precipitation. The concentration of parent drug in blood and brain extracts was determined by quantitative LC-MS/MS analysis using compound-specific mass transitions.

A short description of the next data set: Rat pharmacokinetics. The class given is in vivo, male CD Sprague Dawley rats. The procedure:
Compounds were dosed to male CD Sprague Dawley rats by single intravenous or oral administration at a nominal dose level of 1 mg/kg and 3 mg/kg respectively. Compounds were formulated in 5% DMSO,45% PEG200,50% water. An intravenous profile was obtained by taking serial or terminal blood samples at 0.083, 0.25, 0.5, 1, 2, 4, and 7 hours post dose. An oral profile was obtained by taking serial or terminal blood samples at 0.25, 0.5, 1, 2, 4, 7 and 12 hours post dose. Blood samples were taken directly into heparinised tubes. Blood samples were prepared by protein precipitation and subjected to quantitative analysis by LC-MS/MS using compound-specific mass transitions. Drug concentration-time profiles were generated and non-compartmental PK analysis used to generate estimates of half-life, clearance, volume of distribution and oral bioavailability.

A further data set is described as follows: Dog pharmacokinetics. The format is in vivo, male Beagle dogs. Here is the method: Compounds were dosed to male Beagle dogs by single intravenous or oral administration at a nominal dose level of 1 mg/kg and 2 mg/kg respectively. The study was carried out according to a crossover design such that the same dog was used for both dosing events and the dosing events occurred 1 week apart. Compounds were formulated in 5% DMSO,45% Peg200,50% water. An intravenous profile was obtained by taking serial blood samples at 0.083, 0.25, 0.5, 0.75, 1, 2, 4, 6 & 12 hr post dose. An oral profile was obtained by taking serial blood samples at 0.25, 0.5, 0.75, 1, 2, 4, 6, 12 & 24 hr post dose. Blood samples were taken directly into heparinised tubes. Blood samples were prepared by protein precipitation and subjected to quantitative analysis by LC-MS/MS using compound-specific mass transitions. Drug concentration-time profiles were generated and non-compartmental PK analysis used to generate estimates of half-life, clearance, volume of distribution and oral bioavailability.

Molecules are shown by their SMILES.

T2 sequence (P35367 whole entry): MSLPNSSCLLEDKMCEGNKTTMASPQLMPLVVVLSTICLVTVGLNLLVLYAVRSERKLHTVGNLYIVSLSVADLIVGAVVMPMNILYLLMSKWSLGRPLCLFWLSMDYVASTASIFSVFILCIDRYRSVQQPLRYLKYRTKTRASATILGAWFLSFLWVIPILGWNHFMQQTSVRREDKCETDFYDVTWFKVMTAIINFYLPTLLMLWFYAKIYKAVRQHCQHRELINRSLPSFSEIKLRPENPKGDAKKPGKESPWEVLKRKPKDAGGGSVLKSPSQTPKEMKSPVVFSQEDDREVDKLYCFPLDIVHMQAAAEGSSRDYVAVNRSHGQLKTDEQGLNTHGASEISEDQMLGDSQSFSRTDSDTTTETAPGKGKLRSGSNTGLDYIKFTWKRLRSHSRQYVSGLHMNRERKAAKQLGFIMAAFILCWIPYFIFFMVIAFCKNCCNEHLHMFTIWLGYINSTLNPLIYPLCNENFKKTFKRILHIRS
T1 sequence (Q9Y5N1 whole entry, species assumed): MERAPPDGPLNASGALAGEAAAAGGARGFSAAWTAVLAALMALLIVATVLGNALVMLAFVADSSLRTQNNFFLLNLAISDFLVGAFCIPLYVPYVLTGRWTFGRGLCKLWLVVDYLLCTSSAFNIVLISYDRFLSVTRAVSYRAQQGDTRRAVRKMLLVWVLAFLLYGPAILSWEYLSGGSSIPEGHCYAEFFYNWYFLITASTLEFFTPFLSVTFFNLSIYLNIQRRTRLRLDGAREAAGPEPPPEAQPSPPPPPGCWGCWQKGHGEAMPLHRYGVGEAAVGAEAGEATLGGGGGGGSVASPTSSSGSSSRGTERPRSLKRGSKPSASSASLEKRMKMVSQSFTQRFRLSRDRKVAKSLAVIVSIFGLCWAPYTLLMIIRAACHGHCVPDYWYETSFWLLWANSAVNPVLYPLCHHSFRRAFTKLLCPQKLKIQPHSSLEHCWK

For `CS(=O)(=O)c1ccc(C(=O)N2CCN(c3ccc(OC4CCN(C5CCC5)CC4)cc3)CC2)cc1` [compound of formula (I), 1-{4-[(1-Cyclobutyl-4-piperidinyl)oxy]phenyl}4-{[4-(methylsulfonyl)phenyl]carbonyl}piperazine], the Ki at histamine H3 receptor is roughly 0.000251 µM; at human H1 receptor, roughly 2.51 µM. Further, the concentration at 5 min in the data set “CNS penetration” is less than 100 ng/g. Also, the clearance is roughly 29 mL/min/kg in the data set “Rat pharmacokinetics” (male, CD Sprague Dawley, whole blood, 1 mg/kg intravenous) and roughly 10 mL/min/kg in “Dog pharmacokinetics” (male, Beagle, whole blood, 1 mg/kg intravenous). Besides, the half-life in “Rat pharmacokinetics” (male, CD Sprague Dawley, whole blood, IV route, 1 mg/kg) was roughly 2 h; in the data set “Dog pharmacokinetics” (male, Beagle, whole blood, IV route, 1 mg/kg), roughly 5 h. In the data set “Rat pharmacokinetics” (oral 3 mg/kg vs intravenous 1 mg/kg), the “oral bioavailability in the rat” value was “greater than 50 %F”. In the data set “Dog pharmacokinetics” (oral 2 mg/kg vs intravenous 1 mg/kg), the “oral bioavailability in the dog” value was “about 99 % F”.
